pIC50: −log10 of the molar value.
Legend:
ARAF/MEK protein complex = ARAF/MEK protein complex (Homo sapiens, UniProt P10398+Q02750); test: Mass spectrometry-based assay for covalent labeling of ARAF; assay type: binding; conditions: ARAF/MEK protein complex incubated at room temperature for 2 hours with inhibitor at concentration ratio 1:10; LC-MS of denatured protein
Procedure: Covalent labeling of ARAF by compounds of the invention was measured using a mass spectrometry-based assay. The ARAF/MEK protein complex was incubated at room temperature for 2 hours with desired inhibitors at a concentration ratio of 1:10. Following incubation, proteins were denatured in 8 M urea. Formic acid was added to a final 1% and desalted over C4 resin prior to LCMS analysis. Denatured proteins (10 μg per sample) were analyzed by LC-MS via a U3000 RSLC coupled to an Orbitrap Eclipse mass spectrometer (Thermo Scientific, Waltham, MA, USA). Proteins were eluted off a ES811A (Thermo Scientific, Waltham, MA, USA) 15-cm C4 column with a 5-50% gradient of MeCN in 1% FA. MS scans (range=600-2000 m/z) were obtained in the orbitrap at 120,000 resolution with 4 microscans. The Xtract function in Freestyle software (Thermo Scientific, Waltham, MA, USA) was used to deconvolute charge states averaged across the elution window. Fractional labeling of ARAF was measured by quantitating the unlabeled ARAF and ARAF shifted by the mass expected for formation of a covalent adduct of ARAF with the compound of interest.

[1] = biological target: T1, ARAF/14-3-3 chimera (residues 274-606 of human ARAF fused to human 14-3-3 epsilon) (Homo sapiens, UniProt P10398+Q02750, D190N/G300S/Y301D/Y302D); test: TR-FRET-based kinase assay: inhibition of phosphorylation of MEK1 by ARAF; assay type: biochemical; conditions: 250 nM MEK1(D190N), 75 nM ARAF/14-3-3 chimera, 30 minutes incubation with inhibitor, 200 μM ATP, 1 hour, HTRF
T1 construct: residues 274-606 of human ARAF, including the kinase domain and complete C-terminal region; made in house; host or cells: Sf9 insect cells (baculovirus)
Procedure: The ability of compounds of the invention to inhibit phosphorylation of MEK by ARAF was measured in a TR-FRET-based kinase assay using purified ARAF and MEK proteins. An active, chimeric ARAF protein was employed for this study. This ARAF protein included residues 274-606 of human ARAF, including the kinase domain and complete C-terminal region, fused to human 14-3-3 epsilon (ARAF/14-3-3 chimera). Amino acids corresponding to residues […] of human ARAF (with the sequence Ser-Gly-Tyr-Tyr) were mutated to Ser-Ser-Asp-Asp in this ARAF/14-3-3 chimera. […] In this assay, the ability of compounds of interest to inhibit phosphorylation of MEK1 by ARAF was measured by incubating 250 nM unphosphorylated full-length MEK1(D190N) with 75 nM ARAF/14-3-3 chimera and inhibitor of interest at a series of 12 concentrations (from 10 μM to 1.3 nM) for 30 minutes in reaction buffer (50 mM HEPES pH 7.0, 5 mM MgCl2, 1 mM MnCl2, 0.01% BSA, 2 mM TCEP, 0.1 mM NaVO4) at room temperature. Reactions were initiated by addition of 200 μM ATP and allowed to proceed for 1 hour. Reactions were quenched using detection buffer from HTRF-KinEASE kit (Cisbio). Signal was read with a PHERAstar plate reader (excitation=337 nm, emission=620 nm and 665 nm). IC50 values were determined using Graphpad Prism software from the 12 point concentration-response data using a three-parameter dose-response fit with the Hill slope constrained to −1.

T1 sequence (P10398 274-606 G300S/Y301D/Y302D limits assumed): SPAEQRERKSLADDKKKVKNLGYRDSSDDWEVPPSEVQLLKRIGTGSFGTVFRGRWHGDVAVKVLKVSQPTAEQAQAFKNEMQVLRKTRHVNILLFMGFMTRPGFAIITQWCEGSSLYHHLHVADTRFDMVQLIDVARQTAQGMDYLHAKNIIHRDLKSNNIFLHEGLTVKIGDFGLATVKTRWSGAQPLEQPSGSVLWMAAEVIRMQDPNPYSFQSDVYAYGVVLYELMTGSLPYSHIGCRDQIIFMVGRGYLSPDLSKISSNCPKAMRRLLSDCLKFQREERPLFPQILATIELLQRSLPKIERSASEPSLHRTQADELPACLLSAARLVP
T1 sequence (Q02750 whole entry D190N, the tested form may be a part): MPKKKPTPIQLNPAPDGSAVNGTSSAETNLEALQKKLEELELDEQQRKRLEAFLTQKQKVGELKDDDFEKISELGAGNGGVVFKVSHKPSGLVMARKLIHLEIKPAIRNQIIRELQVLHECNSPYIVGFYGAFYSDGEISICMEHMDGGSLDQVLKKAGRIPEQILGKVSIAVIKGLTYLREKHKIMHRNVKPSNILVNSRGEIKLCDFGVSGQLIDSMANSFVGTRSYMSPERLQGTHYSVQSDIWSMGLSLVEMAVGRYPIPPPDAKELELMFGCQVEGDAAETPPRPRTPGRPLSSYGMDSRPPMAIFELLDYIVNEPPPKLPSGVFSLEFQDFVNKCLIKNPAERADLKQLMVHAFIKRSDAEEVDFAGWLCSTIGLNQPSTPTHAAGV
ARAF/MEK protein complex, sequence (P10398 whole entry): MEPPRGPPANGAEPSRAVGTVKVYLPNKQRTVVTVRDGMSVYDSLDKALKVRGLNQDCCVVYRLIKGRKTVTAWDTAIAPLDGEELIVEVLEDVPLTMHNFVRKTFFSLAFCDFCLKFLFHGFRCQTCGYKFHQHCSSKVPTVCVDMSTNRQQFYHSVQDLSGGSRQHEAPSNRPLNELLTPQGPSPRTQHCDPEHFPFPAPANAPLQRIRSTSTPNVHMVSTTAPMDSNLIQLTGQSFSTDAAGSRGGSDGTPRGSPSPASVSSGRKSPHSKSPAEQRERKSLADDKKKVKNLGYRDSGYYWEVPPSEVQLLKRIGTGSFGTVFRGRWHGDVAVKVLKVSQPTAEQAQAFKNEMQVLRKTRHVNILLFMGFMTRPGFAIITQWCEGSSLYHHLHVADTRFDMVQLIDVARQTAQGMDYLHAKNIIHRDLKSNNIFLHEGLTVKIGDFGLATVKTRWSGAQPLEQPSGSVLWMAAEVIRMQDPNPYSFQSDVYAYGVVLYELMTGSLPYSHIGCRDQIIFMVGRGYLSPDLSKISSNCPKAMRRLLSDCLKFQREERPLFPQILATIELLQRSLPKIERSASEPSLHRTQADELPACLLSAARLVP
ARAF/MEK protein complex, sequence (Q02750 whole entry): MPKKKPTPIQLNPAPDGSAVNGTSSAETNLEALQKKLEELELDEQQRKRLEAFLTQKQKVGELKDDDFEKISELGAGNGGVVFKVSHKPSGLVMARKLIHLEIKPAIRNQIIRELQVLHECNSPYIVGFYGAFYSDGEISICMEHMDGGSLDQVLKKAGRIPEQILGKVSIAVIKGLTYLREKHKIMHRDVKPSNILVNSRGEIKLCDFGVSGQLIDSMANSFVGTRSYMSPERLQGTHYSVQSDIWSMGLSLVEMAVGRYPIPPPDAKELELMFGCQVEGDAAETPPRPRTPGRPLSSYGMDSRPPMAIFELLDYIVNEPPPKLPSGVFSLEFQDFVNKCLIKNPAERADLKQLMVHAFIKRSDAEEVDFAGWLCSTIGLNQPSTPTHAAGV

Row | SMILES | % labeling (covalent labeling of ARAF) (ARAF/MEK protein complex) | pIC50 [1]
1 | Cc1c(=O)n(C)c(Nc2ccc(I)cc2F)c2c(=O)n(C3CC3)c(=O)n(-c3cccc(NC(=O)CCl)c3)c12 [Example 11, 2-Chloro-N-(3-(3-cyclopropyl-5-((2-fluoro-4-iodophenyl)amino)-6,8-dimethyl-2,4,7-trioxo-3,4,6,7-tetrahydropyrido[4,3-d]pyrimidin-1(2H)-yl)phenyl)acetamide] | 100% | 6.31
2 | C=CC(=O)Nc1ccc(Cn2cnc3c(F)c(Nc4ccc(Br)cc4Cl)c(C(=O)OC)cc32)cc1 [Example 9, Methyl 1-(4-acrylamidobenzyl)-5-((4-bromo-2-chlorophenyl)amino)-4-fluoro-1H-benzo[d]imidazole-6-carboxylate] | 0% | 
3 | Cc1c(Cc2cccc(NC(=O)CCl)c2F)c(=O)oc2cc(Oc3ncccn3)ccc12 [Example 4, 2-Chloro-N-(2-fluoro-3-((4-methyl-2-oxo-7-(pyrimidin-2-yloxy)-2H-chromen-3-yl)methyl)phenyl)acetamide] | 100% | 7.22
4 | C=CC(=O)Nc1ccc(CNC(=O)c2cc3c(ncn3C)c(F)c2Nc2ccc(Br)cc2Cl)cc1 [Example 7, N-(4-Acrylamidobenzyl)-5-((4-bromo-2-chlorophenyl)amino)-4-fluoro-1-methyl-1H-benzo[d]imidazole-6-carboxamide] | 0% | 
5 | COC(=O)c1cc2c(ncn2Cc2ccc(NC(=O)CCl)cc2)c(F)c1Nc1ccc(Br)cc1Cl [Example 10, Methyl 5-((4-bromo-2-chlorophenyl)amino)-1-(4-(2-chloroacetamido)benzyl)-4-fluoro-1H-benzo[d]imidazole-6-carboxylate] | 75% | 
6 | C=CC(=O)Nc1cccc(Cc2c(C)c3ccc(Oc4ncccn4)cc3oc2=O)c1F [Example 3, N-(2-Fluoro-3-((4-methyl-2-oxo-7-(pyrimidin-2-yloxy)-2H-chromen-3-yl)methyl)phenyl)acrylamide] | 85% | 6.89
7 | C=C(F)C(=O)Nc1cccc(-n2c(=O)n(C3CC3)c(=O)c3c(Nc4ccc(I)cc4F)n(C)c(=O)c(C)c32)c1 [Example 12, N-(3-(3-Cyclopropyl-5-((2-fluoro-4-iodophenyl)amino)-6,8-dimethyl-2,4,7-trioxo-3,4,6,7-tetrahydropyrido[4,3-d]pyrimidin-1(2H)-yl)phenyl)-2-fluoroacrylamide] | 100% | 6.68
8 | Cn1cnc2c(F)c(Nc3ccc(Br)cc3Cl)c(C(=O)NCc3ccc(NC(=O)CCl)cc3)cc21 [Example 8, 5-((4-Bromo-2-chlorophenyl)amino)-N-(4-(2-chloroacetamido)benzyl)-4-fluoro-1-methyl-1H-benzo[d]imidazole-6-carboxamide] | 40% | 
9 | Cc1c(Cc2ccc(NC(=O)CCl)cc2F)c(=O)oc2cc(Oc3ncccn3)ccc12 [Example 2, 2-Chloro-N-(3-fluoro-4-((4-methyl-2-oxo-7-(pyrimidin-2-yloxy)-2H-chromen-3-yl)methyl)phenyl)acetamide] | 50% | 
10 | C=CC(=O)Nc1ccc(CNC(=O)c2ccc(F)c(F)c2Nc2ccc(I)cc2F)cc1 [Example 5, N-(4-Acrylamidobenzyl)-3,4-difluoro-2-((2-fluoro-4-iodophenyl)amino)benzamide] | 10% | 
11 | O=C(CCl)Nc1ccc(CNC(=O)c2ccc(F)c(F)c2Nc2ccc(I)cc2F)cc1 [Example 6, N-(4-(2-Chloroacetamido)benzyl)-3,4-difluoro-2-((2-fluoro-4-iodophenyl)amino)benzamide] | 40% | 
